Measurements as given in PubChem BioAssay (NCI).
Several values for one entry are separate records, joined by “and”; a condition that tells them apart may be missing. Identical values can stand only once.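 Exposure lasted 48 hours, with cells grown in 96-well plates and compounds tested at five concentrations. GI50 = concentration required for 50% inhibition of growth. TGI denotes the concentration required for complete inhibition of growth.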

How the values were obtained:
Assay in all cases: NCI-60 cell line screen, 48 h
HCT-15 colon = test system: HCT-15 colon
SK-MEL-28 melanoma = test system: SK-MEL-28 melanoma
COLO 205 colon = test system: COLO 205 colon
A498 renal = test system: A498 renal
M14 melanoma = test system: M14 melanoma
U251 CNS = test system: U251 CNS
HT29 colon = test system: HT29 colon
HOP-62 NSCLC = test system: HOP-62 NSCLC
MDA-MB-435 = test system: MDA-MB-435
NCI-H23 lung = test system: NCI-H23 lung

SMILES	GI50 (HCT-15 colon)	TGI (HCT-15 colon)	GI50 (SK-MEL-28 melanoma)	TGI (SK-MEL-28 melanoma)	GI50 (COLO 205 colon)	TGI (COLO 205 colon)	GI50 (A498 renal)	TGI (A498 renal)	GI50 (M14 melanoma)	TGI (M14 melanoma)	GI50 (U251 CNS)	TGI (U251 CNS)	GI50 (HT29 colon)	TGI (HT29 colon)	GI50 (HOP-62 NSCLC)	TGI (HOP-62 NSCLC)	GI50 (MDA-MB-435)	TGI (MDA-MB-435)	GI50 (NCI-H23 lung)	TGI (NCI-H23 lung)
O=c1[nH]c(=O)c2cc3cc(C4CC(O)C(CO)O4)ccc3cc2[nH]1 (centres undefined)	> 100 µM	> 100 µM	> 100 µM	> 100 µM	> 100 µM	> 100 µM	> 100 µM	> 100 µM	> 100 µM	> 100 µM	> 100 µM	> 100 µM	> 100 µM	> 100 µM	> 100 µM	> 100 µM	> 100 µM	> 100 µM	> 100 µM	> 100 µM
COc1ccc(Nc2cc(C)nc(NCc3ccccc3)n2)cc1	2.8 µM	11.9 µM	2.39 µM	6.97 µM	2.08 µM	4.4 µM	1.83 µM	13.6 µM	2.11 µM	7.52 µM	3.13 µM	14.3 µM	2.81 µM	12.7 µM	9.92 µM	24.9 µM	3.16 µM	13 µM	3.55 µM	16.3 µM
O=C(NC(=O)c1ccccc1[N+](=O)[O-])Nc1ccc(Oc2ncc(Cl)cn2)c([N+](=O)[O-])c1		> 95.6 µM				6.06 µM		30.3 µM		> 100 µM		> 88.6 µM		3.31 µM		> 100 µM		0.197 µM		> 28 µM
[Cl][Hg][c]1ccc(Cl)s1	0.397 µM	1.72 µM	1.42 µM	2.87 µM	1.39 µM	2.9 µM	17.2 µM	31.2 µM	1.55 µM	3.17 µM	0.91 µM	2.71 µM	1.14 µM	4.66 µM	4.29 µM	21.8 µM	2.08 µM	5.7 µM	2.69 µM	8.05 µM
O=C(O)C(C(=O)O)P(=S)(S)c1ccccc1 (centres undefined)		> 100 µM		> 100 µM		> 100 µM		> 100 µM		> 100 µM		> 100 µM		> 100 µM		> 100 µM		> 100 µM		> 100 µM
C=C1C(=O)O[C@H]2[C@H]1CC/C(C=Nc1c(N)cc(C(F)(F)F)cc1C(F)(F)F)=C\CC[C@@]1(C)O[C@@H]21	1.05 µM	3.73 µM	1.87 µM	3.83 µM	1.35 µM	3.04 µM	1.49 µM	3.51 µM	1.73 µM	3.67 µM	1.56 µM	2.98 µM	1.13 µM	3.1 µM	2 µM	4.19 µM	2.03 µM	6.05 µM	1.77 µM	4.17 µM
Cn1nc(C(F)(F)F)cc1-c1c[nH]c(OCc2ccc(Cl)cc2)c(-c2ccc(Cl)c(C(F)(F)F)c2)c1=O	0.784 µM	5.07 µM	1.07 µM	3.97 µM	0.935 µM	1.97 µM	0.446 µM	1.31 µM	1.27 µM	4.26 µM	1.27 µM	> 17.5 µM	1.51 µM	> 47.5 µM	1.3 µM	3.55 µM	1.37 µM	6.75 µM	1.05 µM	5.95 µM
N#Cc1c(N)n2c(nc1=Nc1ccc(Cl)cc1)sc1cc(Cl)ccc12	5.47 µM	> 100 µM	5.74 µM and 2.8 µM	> 100 µM			5.24 µM and 1.2 µM	9.62 µM	6.59 µM and 5.9 µM	> 100 µM	6.56 µM	> 100 µM	5.67 µM and 3.77 µM	> 100 µM	4.6 µM	30.1 µM	6.18 µM	> 100 µM		42.4 µM
c1ccc2cc(NCNc3ccc4ccccc4c3)ccc2c1		46.4 µM		> 88.9 µM		34.3 µM		45.6 µM		29.1 µM		93.6 µM		41.3 µM		51.3 µM		3.32 µM		30.5 µM
CCc1nc(N)nc(N)c1-c1ccc2nnn(O)c2c1		> 100 µM		> 100 µM		> 100 µM		> 100 µM		> 100 µM		> 100 µM		> 100 µM		> 100 µM		> 100 µM		> 100 µM
CC[C@@H](C(=O)[C@H](C)[C@H](O)[C@@H](C)[C@H]1O[C@H]([C@@H](CC)C(=O)N(CC)CC)CC[C@H]1C)C1O[C@]2(C=C[C@@H](O)[C@]3(CC[C@@](C)([C@H]4CC[C@](O)(CC)[C@H](C)O4)O3)O2)[C@H](C)C[C@@H]1C (some centres undefined)	2.64 µM	8.28 µM	4.97 µM	17 µM	2.5 µM	5.82 µM	2.44 µM	8.21 µM			3.33 µM	14 µM	3.34 µM	15.6 µM	4.33 µM	19.5 µM	2.81 µM	9.8 µM	2.81 µM	8.94 µM
CONC(C)=O		> 100 µM		> 100 µM		> 100 µM		> 100 µM		> 100 µM		> 100 µM		> 100 µM		> 100 µM		> 100 µM		> 100 µM
CCOC(=O)Nc1nc2ccc(Br)cc2s1	> 50 µM	> 50 µM	> 50 µM	> 50 µM	> 50 µM	> 50 µM	> 50 µM	> 50 µM	> 50 µM	> 50 µM	> 50 µM	> 50 µM	> 50 µM	> 50 µM	> 50 µM	> 50 µM	> 50 µM	> 50 µM	> 50 µM	> 50 µM
C=C1C(=O)O[C@H]2C[C@@H]1CC/C(C)=C/CC/C(C)=C/CC[C@@]2(C)O	26.4 µM	71.6 µM	37.2 µM	> 100 µM	44.2 µM	> 100 µM	43.8 µM	> 100 µM	44.4 µM	> 100 µM	53 µM	> 100 µM	34.6 µM	> 100 µM	> 100 µM	> 100 µM	57.5 µM	> 100 µM	7.51 µM	> 100 µM
